Experimental data: US20030225007A1, “Sulfonamide derivatives of 3-substituted imidazol[1,2-d]-1,2,4-thiadiazoles and 3-substituted-[1,2,4] thiadiazolo[4,5-a] benzimidazole as inhibitors of fibrin cross-linking and transglutaminases” (Apotex Inc., priority 2002, published 2003)

Experiments:
[1] = molecular target: T1, endogenous Factor XIII in plasma (Plasma FXIIIa) (Homo sapiens, UniProt P00488); experiment: Inactivation of endogenous Factor XIII in plasma; format: biochemical; details: citrated plasma, thrombin-activated, 5 min at 37° C.
T1 construct: from tissue; host or cells: citrated plasma (desensitized by heating)
T1 sequence (P00488 39-732 limits assumed): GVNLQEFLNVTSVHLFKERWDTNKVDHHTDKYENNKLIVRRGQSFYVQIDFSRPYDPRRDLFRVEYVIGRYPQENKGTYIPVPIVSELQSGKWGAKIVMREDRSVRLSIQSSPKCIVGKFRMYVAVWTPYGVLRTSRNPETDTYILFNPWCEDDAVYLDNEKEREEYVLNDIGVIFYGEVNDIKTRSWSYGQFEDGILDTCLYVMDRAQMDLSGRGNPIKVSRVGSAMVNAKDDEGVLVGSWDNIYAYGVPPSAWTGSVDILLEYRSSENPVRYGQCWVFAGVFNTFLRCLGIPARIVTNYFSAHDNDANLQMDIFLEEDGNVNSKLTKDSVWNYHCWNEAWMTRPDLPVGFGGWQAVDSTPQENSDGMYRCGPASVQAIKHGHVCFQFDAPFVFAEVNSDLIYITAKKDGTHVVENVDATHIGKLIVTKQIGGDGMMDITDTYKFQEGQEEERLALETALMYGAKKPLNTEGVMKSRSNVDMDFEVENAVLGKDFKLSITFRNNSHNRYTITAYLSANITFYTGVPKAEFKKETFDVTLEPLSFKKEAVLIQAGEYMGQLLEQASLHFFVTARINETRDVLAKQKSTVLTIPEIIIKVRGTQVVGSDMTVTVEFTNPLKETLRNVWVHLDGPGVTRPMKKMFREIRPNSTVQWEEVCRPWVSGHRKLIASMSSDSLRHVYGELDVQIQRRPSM
Protocol: Citrated plasma (0.235 mL) was “desensitized” by heating with ethylene glycol monomethyl ether (0.235 mL, 20% solution in water) in a glass test tube at 56° C. for 4 min., as described by Lorand (Lorand, L.; Lockridge, O. M.; Campbell, L. K.; Myhrman, R.; Bruner-Lorand, J. Anal.Biochem. 1971, 44, 221-231). After cooling to 37° C., calcium chloride (20 μL, 0.4 M in 50 mM Tris-HCl pH 7.5) and inhibitor solution in 50% glycerol (59 μL) were added. Bovine thrombin (30 NIH units in 118 μL of 50 mM Tris-HCl pH 7.5 containing 20 mM CaCl2) was added and the mixture was incubated at 37° C. for 5 min.
An assay mixture composed of 0.1 M sodium borate, pH 9.0, 0.3% ethylene glycol monomethyl ether, 32 μM monodansylcadaverine, 10 mM CaCl2 and 0.08% dimethyl casein in a final volume of 1.263 mL was prepared in a spectrofluorometric cell and incubated at 37° C. for a few minutes. To assay the residual enzyme activity, 567 μL of the plasma solution was transferred to the assay mixture. The covalent incorporation of monodansylcadaverine into casein was monitored by an increase in fluorescence at λex=360 nm and λem=500 nm, as previously described (Curtis, C. G.; Lorand, L. Methods Enzymol. 1976, 45, 177-191). To determine uninhibited enzyme activity, inhibitor solution was replaced by 50% glycerol. IC50 values (inhibitor concentration resulting in 50% enzyme inactivation) were determined by plotting the percent of remaining enzyme activity against logarithm of inhibitor concentration.

[2] = molecular target: T2, Factor XIIIa (activated FXIII) (Homo sapiens, UniProt P00488); experiment: Inactivation of purified Factor XIIIa (monodansylcadaverine incorporation into dimethylcasein, fluorescence); format: biochemical; details: purified activated FXIII; 50% enzyme inactivation after 5-min incubation with inhibitor at 37° C. in the absence of substrate; read-out: FXIIIa (IC50 in μM)
T2 construct: purchased Enzyme Research Laboratories, Ltd
T2 sequence (P00488 39-732 limits assumed): T1 sequence (P00488 39-732 limits assumed)
Protocol: FXIII (0.5 mg/mL, Enzyme Research Laboratories, Ltd.) in 50 mM Tris-HCl pH 7.5 containing 100 mM NaCl, 40 mM CaCl2, 1 mM EDTA and 0.1% poly(ethylene glycol) (app. MW=8000) was activated by incubation with 10 NIH units/mL of human thrombin (Calbiochem) at 37° C. for 20 min. Thrombin was quenched with 20 NIH units/mL of hirudin from Leech (Sigma).
Inhibitor solution in DMSO (14 μL) was added to 120 μL of 250 mM Tris-Cl pH 7.5 containing 40 mM CaCl2 and 1 mM EDTA and the solution was incubated at 37° C. for two minutes. Activated FXIII (5 μL, 0.5 mg/mL) was added and the mixture was incubated at 37° C. for 5 min.
An assay mixture composed of 50 mM Tris-Cl pH 8.0, 10 mM CaCl2, 1 mM EDTA, 0.1% poly(ethylene glycol) (app. MW=1000) and 20 μM monodansylcadaverine was prepared in a spectrofluorometric cell in a final volume of 2880 μL. Dimethylcasein (8 μL, 1% in 50 mM sodium phosphate pH 7.5) was added and the solution was incubated at 37° C. for a few minutes. To assay the residual enzyme activity, 120 μL of the solution containing the enzyme and the inhibitor was transferred to the assay mixture. The covalent incorporation of monodansylcadaverine into casein was monitored by an increase in fluorescence at λexc=360 nm and λem=500 nm as previously described (Curtis, C. G.; Lorand, L. Methods Enzymol. 1976, 45, 177-191). To determine uninhibited enzyme activity, DMSO was used in place of inhibitor solution in the above assay. IC50 were determined by plotting the percent of remaining enzyme activity against logarithm of inhibitor concentration. IC50 is defined here as an inhibitor concentration resulting in 50% enzyme inactivation after 5-min incubation of the enzyme with the inhibitor in the absence of the substrate. Second order rate constants for inactivation were determined using method described by Kitz and Wilson (Kitz, R.; Wilson, I. J. Biol. Chem. 1962, 237, 3245).

IC50 [1] [µM]	IC50 [2] [µM]	melting point [°C]	Structure (SMILES)
7.1			CN(C)c1cccc2c(S(=O)(=O)NCCCCCNc3nsc4nccn34)cccc12 [1 / 5-Me2N-1-naphthyl, 5-(Dimethylamino)-N-[5-(imidazo[1,2-d][1,2,4]thiadiazol-3-ylamino)pentyl]naphthalene-1-sulfonamide]
38			CS(=O)(=O)NCCCCCCNc1nsc2nccn12 [2 / CH3, N-[6-(Imidazo[1,2-d][1,2,4]thiadiazol-3-ylamino)hexyl]methanesulfonamide]
	5.2	97 to 100	O=C(O)CCN(CCCCCCNc1nsc2nccn12)S(=O)(=O)c1ccc(F)cc1F [2 / OH / 2-F-4-F-Ph, N-[(2,4-difluorophenyl)sulfonyl]-N-[6-(imidazo[1,2-d][1,2,4]thiadiazol-3-ylamino)hexyl]-β-alanine]
	1.3	151 to 153	Cc1c(Cl)cccc1S(=O)(=O)NCCCCCCNc1nsc2nccn12 [2-Me-3-Cl-Ph, 3-chloro-N-[6-(imidazo[1,2-d][1,2,4]thiadiazol-3-ylamino)hexyl]-2-methylbenzenesulfonamide]
	10	140 to 142	Cc1ccc(F)cc1S(=O)(=O)NCCCCCCNc1nsc2nccn12 [2-Me-5-F-Ph, 5-fluoro-N-[6-(imidazo[1,2-d][1,2,4]thiadiazol-3-ylamino)hexyl]-2-methylbenzenesulfonamide]
	2	138 to 139	Nc1ccccc1S(=O)(=O)NCCCCCCNc1nsc2nccn12 [2-NH2-Ph, 2-amino-N-[6-(imidazo[1,2-d][1,2,4]thiadiazol-3-ylamino)hexyl]benzenesulfonamide]
		113.7 to 114.6	O=[N+]([O-])c1ccccc1S(=O)(=O)NCCCCCCNc1nsc2nccn12 [H / H / 2-NO2-Ph, N-[6-(imidazo[1,2-d][1,2,4]thiadiazol-3-ylamino)hexyl]-2-nitrobenzenesulfonamide]
